The subject of one assay is E. coli cells. Kind of assay: MIC of ampicillin for E. coli cells expressing RG13 from pDIMC8 (Table 11). In kind it is cell-based. The source says: The signal recognition domain can be altered by rational design or directed evolution to bind to new effectors. With respect to testing mutations predicted by rational design or screening or selecting libraries created for a directed evolution approach, existing switches are used to efficiently test or select for binding to new ligands in vivo. For example, E. coli cells expressing the MBP-BLA switch RG13 from the lac promoter on pDIMC8 have a higher MIC for ampicillin (Amp) in the presence of maltose than in their absence (Table 11) because the BLA enzymatic activity of RG13 (hydrolysis of ampicillin) is higher in the presence of maltose. Thus, for example, mutations created in RG13 (either by rational design or by a stochastic or semi-stochastic method) such that mutant forms of RG13 bind another ligand X (and behave as a switch) can be screened or selected for in vivo. E. coli producing such a new switch will grow at 200 μg/ml Amp in the presence of X but not in the absence of X.

A short description of assay [1]: Hydrolysis of benzylpenicillin by RG-200-13 with and without 5 mM maltose. In kind it is biochemical. The conditions noted are these: pH 7.0, 22° C. How it is done: (§1) A 6×His tag was added to the C-terminus of RG-200-13 (also termed “RG13” in Examples below) and the fusion was purified as previously described (Guntas and Ostermeier 2004). The protein was purified to approximately 60% purity. The kinetic constants and binding constants were determined from Eadie-Hofstee plots and Eadie plot equivalents, respectively, using a spectrophotometric assay for nitrocefin hydrolysis. Initial rates for nitrocefin hydrolysis were determined from absorbance at 486 nm monitored as a function of time. The enzyme was incubated at the assay temperature in the absence or presence of saccharide for four minutes prior to performing the assay. All assays contained 100 mM sodium phosphate buffer, pH 7.0. The dissociation constant for maltose was determined using change in velocity of nitrocefin hydrolysis as a signal.
(§2) Maltose binding had the largest effect on cephalothin (of the substrates tested), with the velocity of cephalothin hydrolysis being 32-fold higher in the presence of maltose than in its absence.

Assay [2] in a line: Dissociation constant for maltose using change in velocity of nitrocefin hydrolysis as signal. The conditions noted are these: 22° C.; read-out: Kd for maltose binding. On the procedure: as §1
Assay [3] is described as follows: Apparent dissociation constant for maltose from initial rate of nitrocefin hydrolysis. It is filed as binding. The conditions noted are these: 25° C. On the procedure: [formula] where ΔF is the change in fluorescence intensity, ΔFmax is the difference in fluorescence between no maltose and saturating amounts of maltose and [L] is the maltose concentration. The fluorescence quenching of RG13(1329W/A96W) upon addition of maltose was insufficient to accurately determine a Kd by this method. The dissociation constant for maltose and RG13(I329W) in the presence of saturating carbenicillin (2 mM) was determined by measuring the initial rate of carbenicillin hydrolysis as a function of maltose concentration. The apparent dissociation constant in the presence of subsaturating concentrations of nitrocefin (25 μM) for all three proteins was determined by measuring the initial rate of nitrocefin hydrolysis as a function of maltose concentration.

A short description of assay [4]: Hydrolysis of cephalothin by RG-200-13 with and without 5 mM maltose. It is filed as biochemical. Particulars: substrate cephalothin 250 μM; pH 7.0, 22° C. How it is done: as §1, §2
Assay [5] is described as follows: Dissociation constant for maltose from initial rate of carbenicillin hydrolysis. In kind it is binding. Particulars: 1.5 mM carbenicillin, 25° C., read-out: Kd maltose, Saturating Carbenicillin, Enzymatic assay.
Assay [6] can be described thus: 96-well colorimetric nitrocefin hydrolysis screen of lysates with or without 5 mM maltose. In kind it is biochemical. The conditions noted are these: 50 μM nitrocefin. How it is done:
The naïve library was plated on LB agar plates supplemented with 200 μg/ml ampicillin and 50 mM maltose and incubated at 37° C. overnight. From these plates, 1056 colonies were picked to inoculate 1 ml LB media (supplemented with 50 μg/ml chloramphenicol and 1 mM IPTG) in 96-well format. After incubation overnight at 37′C, each culture was lysed using 0.1 ml Popculture reagent, 40 units of rLysozyme, and 2.5 units of benzonase nuclease. Lysates were centrifuged to pellet the insoluble material and the soluble fractions were assayed in 96-well format for nitrocefin hydrolysis in the presence or absence of 5 mM maltose using a colorimetric assay for nitrocefin hydrolysis (Posey et al. 2002). The assays were carried out at room temperature using the Spectramax-384 Plus microplate reader (Molecular Devices) in the presence of 100 mM sodium phosphate buffer and 50 μM nitrocefin in a 200 μl reaction volume.

Assay [7] is described as follows: Hydrolysis of ampicillin by RG-200-13 with and without 5 mM maltose. It is filed as biochemical. Particulars: pH 7.0, 22° C. How it is done: as §1, §2
Assay [8] can be described thus: Nitrocefin hydrolysis in soluble fraction of cell lysates with and without 5 mM maltose (screen and confirmation of positives). In kind it is biochemical. Particulars: 50 μM nitrocefin. How it is done:
Next, 50 μl of PopCulture (Novagen) and 2.5 unit of benzonase nuclease was added to each well and incubated for 15 minutes at room temperature to lyse the cells. The cells debris and any unlysed cells were pelleted by centrifugation and supernatant was recovered. In 96-well format, 60 μl of lysate was assayed for hydrolysis of nitrocefin (50 μM) by monitoring the increase in absorbance at 490 nm in 100 mM sodium phosphate buffer, pH 7.0, both with and without 5 mM maltose. Any lysate in which there was a difference in rate of more than 2-fold (between with and without maltose) was selected for retesting and further investigation.
Library members identified as having more than 200% switching activity in the 96-well plate screen were grown 24-48 hours in 100 ml LB media in 500 ml shaker flasks at 22° C. without IPTG. The cells were pelleted and resuspended in 8 ml assay buffer (100 mM sodium phosphate buffer, pH 7.0) and lysed by French press. The soluble fraction of this lysate was assayed for hydrolysis of nitrocefin (50 μM) at 22° C. as previously described (Guntas and Ostermeier 2004) both with and without 5 mM maltose. Initial rates were determined from absorbance at 486 nm monitored as a function of time. The enzyme was incubated at the assay temperature in the absence or presence of 5 mM maltose for four minutes prior to performing the assay. All assays contained 100 mM sodium phosphate buffer, pH 7.0. Library members for which there was a difference in the initial rate of more than about 2-fold were sequenced (Table 4). Switches RG-5-169 and RG-200-13 were also assayed in the presence of 5 mM sucrose or 5 mM glucose.

As to “RG13: MBP-BLA fusion switch MBP[1-316]-BLA[227-286]-GSGGG-BLA[24-226]-S-MBP[319-370]; SEQ ID NO: 61”, the MIC ampicillin in the assay with E. coli cells (supplement to plate: 50 μM maltose) worked out at 400 µg/mL; with E. coli cells (supplement to plate: 5 mM maltose), 400 µg/mL; in the assay with E. coli cells (supplement to plate: none, LB plates, 37° C.), 100 µg/mL. The “Approximate fold increase in velocity of benzylpenicillin hydrolysis in the presence of 5 mM maltose” value in assay [1] (substrate benzylpenicillin 100 μM) is recorded as approximately 17 fold; in assay [1] (substrate benzylpenicillin 500 μM), approximately 7 fold. For the same substance, the Kd in assay [2] is approximately 5 µM; in [3], 6.7 ± 0.03 µM; in [5], 0.9 ± 0.1 µM. In addition, the “Fold increase in velocity of cephalothin hydrolysis with 5 mM maltose” value in assay [4] turned out to be 32 fold. Also, the “Increase of initial velocity of nitrocefin hydrolysis in the presence of maltose” value in [6] is listed as 17 fold. In addition, the results for the “Approximate fold increase in velocity of ampicillin hydrolysis in the presence of 5 mM maltose” value in assay [7] (substrate ampicillin 100 μM) and in assay [7] (substrate ampicillin 500 μM) were approximately 26 fold and approximately 10 fold, respectively. In addition, the “Effect of 5 mM sucrose or 5 mM glucose on velocity of nitrocefin hydrolysis” value in [8] (22° C., lysate soluble fraction) is on record as “Neither sugar affected the velocity of nitrocefin hydrolysis”. Also, in assay [8] (5 mM maltose, 100 mM sodium phosphate buffer, pH 7.0), the “Switching effect: percent change in velocity of nitrocefin hydrolysis in the presence of 5 mM maltose” value is listed as “+1650%”.

The record behind these values is patent US9290544B2, “Methods for making and using molecular switches involving circular permutation” (priority 2004, dated 2016).
